What was measured:
Type in all cases: in vivo
Lolium multiflorum Lam. = experiment: Test Example 4: herbicidal effect by application to foliage (diluvial soil, plastic box); details: foliage application, 320 g/ha
Summary of the method: (§1)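 Emulsion-formulated compound, diluted to a predetermined g/ha dose, applied by small sprayer to leaves and stems of 14-day-old seedlings grown in sterilized diluvial soil. Effect rated on 0–5 herbicidal-ratio scale three weeks on.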

Amaranthus retroflexus = experiment: as above; details: foliage application, 320 g/ha
Summary of the method: as §1

Chenopodium album = experiment: as above; details: foliage application, 320 g/ha
Summary of the method: as §1

Apera spica-venti. = experiment: as above; details: foliage application, 320 g/ha
Summary of the method: as §1

Avena fatua = experiment: as above; details: foliage application, 320 g/ha
Summary of the method: as §1

Abutilon theophrasti = experiment: as above; details: foliage application, 320 g/ha
Summary of the method: as §1

[1] = tested on: Echinochloa crus-galli var. crus-galli; experiment: as above; details: foliage application, 320 g/ha
Summary of the method: as §1

[2] = tested on: directly sowed Oryza sativa; experiment: Test Example 3: effect on crop by application to foliage (Wagner pot, water depth 0.1-0.5 cm); details: Nineteenth Table; application to foliage; application herbicide amount 320 g/ha
Summary of the method: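 Scores (0–5) reflect herbicidal ratio three weeks after a foliar spray: 0 is 5% or less, 5 is 90% or more. Plants had grown 14 days in alluvial soil pots in a 25–30 °C greenhouse before treatment with water-diluted emulsion at a set g/ha.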

[3] = tested on: transplanted Oryza sativa; experiment: Test Example 1: effect on crop, application before weed generation in submerged conditions; details: Application herbicide amount 320 g/ha; Seventeenth Table
Summary of the method: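 Rating, on a six-step scale from almost no effect (0) to almost completely withered (5), was made three weeks after pre-emergence treatment. Treatment was surface application to flooded pots at g/ha rates, with plants kept at 25° C. to 30° C.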

SMILES: Cn1nnnc1NC(=O)c1ccc(C(F)(F)F)n2c(-c3cccs3)nnc12 [2-061]
- K (Lolium multiflorum Lam.) herbicidal effect grade (Lolium multiflorum Lam.): 4 (Herbicidal ratio of 70% or more and less than 90%)
- N (Amaranthus retroflexus) herbicidal effect grade (Amaranthus retroflexus): 5 (Herbicidal ratio of 90% or more (almost completely withered))
- O (Chenopodium album) herbicidal effect grade (Chenopodium album): 5 (Herbicidal ratio of 90% or more (almost completely withered))
- L (Apera spica-venti.) herbicidal effect grade (Apera spica-venti.): 3 (Herbicidal ratio of 40% or more and less than 70%)
- I (Avena fatua) herbicidal effect grade (Avena fatua): 4 (Herbicidal ratio of 70% or more and less than 90%)
- M (Abutilon theophrasti) herbicidal effect grade (Abutilon theophrasti): 4 (Herbicidal ratio of 70% or more and less than 90%)
- H (Echinochloa crus-galli var. crus-galli) herbicidal effect grade [1]: 5 (Herbicidal ratio of 90% or more (almost completely withered))
- b (effect on crop grade) [2]: 5 (Herbicidal ratio of 90% or more (almost completely withered))
- a: transplanted Oryza sativa (effect on crop grade) [3]: 4 (Herbicidal ratio of 70% or more and less than 90%)

SMILES: Cc1cc(-c2nnc3c(C(=O)Nc4nnnn4C)ccc(C(F)(F)F)n23)n(C)n1 [2-062]
- K (Lolium multiflorum Lam.) herbicidal effect grade (Lolium multiflorum Lam.): 5 (Herbicidal ratio of 90% or more (almost completely withered))
- N (Amaranthus retroflexus) herbicidal effect grade (Amaranthus retroflexus): 5 (Herbicidal ratio of 90% or more (almost completely withered))
- O (Chenopodium album) herbicidal effect grade (Chenopodium album): 5 (Herbicidal ratio of 90% or more (almost completely withered))
- L (Apera spica-venti.) herbicidal effect grade (Apera spica-venti.): 5 (Herbicidal ratio of 90% or more (almost completely withered))
- I (Avena fatua) herbicidal effect grade (Avena fatua): 5 (Herbicidal ratio of 90% or more (almost completely withered))
- M (Abutilon theophrasti) herbicidal effect grade (Abutilon theophrasti): 5 (Herbicidal ratio of 90% or more (almost completely withered))
- H (Echinochloa crus-galli var. crus-galli) herbicidal effect grade [1]: 5 (Herbicidal ratio of 90% or more (almost completely withered))
- b (effect on crop grade) [2]: 5 (Herbicidal ratio of 90% or more (almost completely withered))
- a: transplanted Oryza sativa (effect on crop grade) [3]: 5 (Herbicidal ratio of 90% or more (almost completely withered))

SMILES: COc1cc(OC)cc(-c2nnc3c(C(=O)Nc4nnnn4C)ccc(C(F)(F)F)n23)c1 [2-063]
- K (Lolium multiflorum Lam.) herbicidal effect grade (Lolium multiflorum Lam.): 3 (Herbicidal ratio of 40% or more and less than 70%)
- N (Amaranthus retroflexus) herbicidal effect grade (Amaranthus retroflexus): 5 (Herbicidal ratio of 90% or more (almost completely withered))
- O (Chenopodium album) herbicidal effect grade (Chenopodium album): 5 (Herbicidal ratio of 90% or more (almost completely withered))
- L (Apera spica-venti.) herbicidal effect grade (Apera spica-venti.): 3 (Herbicidal ratio of 40% or more and less than 70%)
- I (Avena fatua) herbicidal effect grade (Avena fatua): 4 (Herbicidal ratio of 70% or more and less than 90%)
- M (Abutilon theophrasti) herbicidal effect grade (Abutilon theophrasti): 5 (Herbicidal ratio of 90% or more (almost completely withered))
- H (Echinochloa crus-galli var. crus-galli) herbicidal effect grade [1]: 5 (Herbicidal ratio of 90% or more (almost completely withered))
- b (effect on crop grade) [2]: 3 (Herbicidal ratio of 40% or more and less than 70%)
- a: transplanted Oryza sativa (effect on crop grade) [3]: 4 (Herbicidal ratio of 70% or more and less than 90%)

SMILES: Cn1nnnc1NC(=O)c1ccc(C(F)(F)F)n2c(-c3cc(Cl)cc(Cl)c3)nnc12 [2-064]
- K (Lolium multiflorum Lam.) herbicidal effect grade (Lolium multiflorum Lam.): 0 (Herbicidal ratio of 5% or less (almost no effect))
- N (Amaranthus retroflexus) herbicidal effect grade (Amaranthus retroflexus): 5 (Herbicidal ratio of 90% or more (almost completely withered))
- O (Chenopodium album) herbicidal effect grade (Chenopodium album): 5 (Herbicidal ratio of 90% or more (almost completely withered))
- L (Apera spica-venti.) herbicidal effect grade (Apera spica-venti.): 0 (Herbicidal ratio of 5% or less (almost no effect))
- I (Avena fatua) herbicidal effect grade (Avena fatua): 0 (Herbicidal ratio of 5% or less (almost no effect))
- M (Abutilon theophrasti) herbicidal effect grade (Abutilon theophrasti): 5 (Herbicidal ratio of 90% or more (almost completely withered))
- H (Echinochloa crus-galli var. crus-galli) herbicidal effect grade [1]: 3 (Herbicidal ratio of 40% or more and less than 70%)
- b (effect on crop grade) [2]: 0 (Herbicidal ratio of 5% or less (almost no effect))
- a: transplanted Oryza sativa (effect on crop grade) [3]: 3 (Herbicidal ratio of 40% or more and less than 70%)

Source: US9708314B2, “Heterocyclic amide compound” (NISSAN CHEMICAL INDUSTRIES, LTD., priority 2013, dated 2017)
